Measurements taken from ChEMBL document CHEMBL1671859, “bla(IMP-4) in different genetic contexts in Enterobacteriaceae isolates from Australia” (2008).

Columns and labels:
Type in all cases: functional
Serratia marcescens = experiment: Antibacterial activity against Serratia marcescens Sm2723 transconjugant harboring IncL/M plasmid and blaIMP-4-qacG2-aacA4-catB3 array by Etest method in presence of clavulanic acid
Klebsiella oxytoca [1] = experiment: Antibacterial activity against Klebsiella oxytoca isolate Ko238 harboring IncA/C plasmid and blaIMP-4-qacG2-aacA4-catB3 array by Etest method in presence of clavulanic acid
Klebsiella pneumoniae [2] = experiment: Antibacterial activity against Klebsiella pneumoniae isolate Kp3799 harboring IncL/M plasmid and blaIMP-4-qacG2-aacA4-catB3 array by Etest method in presence of clavulanic acid
Citrobacter koseri = experiment: Antibacterial activity against Citrobacter koseri isolate Ck211 harboring IncA/C plasmid and blaIMP-4-qacG2-aacA4-catB3 array by Etest method in presence of clavulanic acid
Klebsiella oxytoca [3] = experiment: Antibacterial activity against Klebsiella oxytoca Ko238 transconjugant harboring IncA/C plasmid and blaIMP-4-qacG2-aacA4-catB3 array by Etest method in presence of clavulanic acid
Acinetobacter = experiment: Antibacterial activity against Acinetobacter isolate A74510 harboring blaIMP-4-qacG2-aacA4-catB3 array by Etest method in presence of clavulanic acid
Citrobacter amalonaticus [4] = experiment: Antibacterial activity against Citrobacter amalonaticus Ca38009 transconjugant harboring IncL/M plasmid and blaIMP-4-qacG2-aacA4-catB3 array by Etest method in presence of clavulanic acid
Citrobacter youngae = experiment: Antibacterial activity against Citrobacter youngae isolate CyB38 harboring blaIMP-4-qacG2-aacA4-catB3 array by Etest method in presence of clavulanic acid
Enterobacter cloacae [5] = experiment: Antibacterial activity against Enterobacter cloacae isolate El216 harboring IncA/C plasmid and blaIMP-4-qacG2-aacA4-catB3 array by Etest method in presence of clavulanic acid
Klebsiella pneumoniae [6] = experiment: Antibacterial activity against Klebsiella pneumoniae isolate Kp204 harboring IncA/C plasmid and blaIMP-4-qacG2-aacA4-catB3 array by Etest method in presence of clavulanic acid
Escherichia coli = experiment: Antibacterial activity against Escherichia coli Ec158 transconjugant harboring IncA/C plasmid and blaIMP-4-qacG2-aacA4-catB3 array by Etest method in presence of clavulanic acid
Enterobacter cloacae [7] = experiment: Antibacterial activity against Enterobacter cloacae isolate El1573 harboring IncL/M plasmid and blaIMP-4-qacG2-aacA4-catB3 array by Etest method in presence of clavulanic acid
Citrobacter amalonaticus [8] = experiment: Antibacterial activity against Citrobacter amalonaticus isolate Ca3927 harboring IncL/M plasmid and blaIMP-4-qacG2-aacA4-catB3 array by Etest method in presence of clavulanic acid
Klebsiella pneumoniae [9] = experiment: Antibacterial activity against Klebsiella pneumoniae Kp2730 transconjugant harboring IncL/M plasmid and blaIMP-4-qacG2-aacA4-catB3 and dfrA12-orfF-aadA2 arrays by Etest method in presence of clavulanic acid

Measured: MIC

CC1(C)S[C@@H]2[C@H](NC(=O)[C@H](N)c3ccc(O)cc3)C(=O)N2[C@H]1C(=O)O [AMOXICILLIN]
> 16 µg/mL: Serratia marcescens | Klebsiella oxytoca [1] | Klebsiella pneumoniae [2] | Citrobacter koseri | Klebsiella oxytoca [3] | Acinetobacter | Citrobacter amalonaticus [4] | Citrobacter youngae | Enterobacter cloacae [5] | Klebsiella pneumoniae [6] | Escherichia coli | Enterobacter cloacae [7] | Citrobacter amalonaticus [8] | Klebsiella pneumoniae [9]
